The test system of assay [1] is mice with ALF induced by TAA. Put plainly: Survival in TAA induced acute liver failure. The assay is classed as in vivo, C57BL6/J mice. As to conditions: TAA 1000 mg/kg and celastrol 3 mg/kg i.p.; examined 3 days or longer; TAA alone 100% mortality. The procedure: Thiomacetamide (TAA) was administered to C57BL6/J mice to induce liver damage. Groups of at least 6 C57BL6/J mice received either TAA (1000 mg/kg) and a placebo, TAA (1000 mg/kg) and celastrol (3 mg/kg), or placebo only by intraperitoneal injection. Mice were examined for 3 days or longer to determine survival (FIG. 12).

The subject of a further assay is NOD-scid mice. As to the kind of experiment: Adaptive transfer of splenocytes into NOD-scid mice. The assay is classed as in vivo. As to conditions: splenocytes from celastrol treated NOD mice, 5.3×10^6 cells per mouse via tail vein; at 68 day. From the text:
NOD mice were sacrificed and splenocytes collected from celastrol-treated healthy mice and mice that became diabetic recently were adaptively transferred at 5.3×10^6 cells per mouse into NOD-scid mice (mice free from immune system) via tail vein injection. Blood glucose levels of the mice were monitored starting from 4 weeks after the adaptive transfer was made. All mice (n=4) that received splenocytes from diabetic mice became diabetic between 31-38 days (FIG. 17, Kaplan-Meier graph). In contrast, mice (12/12) that received splenocytes from celastrol treated mice were free of diabetes (hyperglycemic condition) at 68 day (FIG. 17).

For assay [2], the system named is mice with STZ induced diabetes. As to the kind of experiment: Blood glucose in streptozotocin (STZ) induced diabetes model. The assay is classed as in vivo, C57BL6/J mice. As to conditions: STZ 50 mg/kg i.p.; celastrol 2.5 mg/kg by injection from day -2, three times per week; monitored 30 days. The procedure:
The administration of streptozotocin to induce pancreatic cell death is a well-known model of diabetes, see for example, Like and Rossini, “Streptozotocin-induced pancreatic insulitis: new model of diabetes mellitus.” Science. Jul. 30, 1976; 193(4251):415-7. Fasting C57BL6/J mice received 50 mg/kg streptozotocin (STZ) by intraperitoneal injection at day 0. Two days prior to (−2 day) and concurrently with STZ injection half of the mice also received celastrol by injection (2.5 mg/kg). Celastrol injections continued three times per week throughout the experiment. Blood glucose levels were monitored for 30 days after treatment (FIG. 9). […] In mice, normoglycemia is typically less than 200 mg/dL blood glucose.

Assay [3] concerns stem cell populations in bone marrow (cd34+, cd45+, Sca-1+ cells). Put plainly: FACS of cells expressing stem cell markers CD34, CD45, Sca-1 in bone marrow samples. The assay is classed as in vivo, C57BL6/J mice. The procedure:
Mice received either a placebo (PBS) or oridonin (3.0 mg/kg) by intraperitoneal injection.

Assay [4] deals with mice with STZ induced diabetes. As to the kind of experiment: Glucose challenge test in STZ mice. The format is in vivo, C57BL6/J mice. As to conditions: 1 g glucose/kg, monitored up to 5 hours, placebo mice at or above 400 mg/dl between 0.5 and 2 hours. The procedure:
STZ was administered to C57BL6/J mice as described above to induce diabetes. Groups of C57BL6/J mice that received either STZ and placebo or STZ and celastrol were then subjected to a glucose challenge test to assay glucose metabolism. STZ mice received 1 g glucose/kg. Blood glucose levels were monitored for up to 5 hours following administration of glucose. […] Blood glucose levels never reached these levels in STZ mice treated with celastrol. In fact, mice treated with celastrol were better able to metabolize glucose than STZ mice that received placebo (FIG. 10).

Assay [5] deals with irradiated wild type mice, C57BL/6. Put plainly: Transfer of blood cells of treated GFP mice into irradiated wild type mice. The format is in vivo, C57BL/6 mice. The procedure: As reported herein, celastrol activated and mobilized stem cells into peripheral blood. These observations were extended using GFP mice to analyse stem cell mobilization. Mice expressing GFP in their bone marrow were treated with celastrol and placebo. Blood samples were collected on the third day and red blood cells were lysed. White blood cells containing mobilized stem cells, if any, were injected at 0.5×10^6 cells per mouse through retro-orbital sinus into wild type mice, C57BL/6 that were irradiated to destroy the hematopoietic systems. Cells obtained from placebo-treated GFP mice were injected into a group of wild type mice which served as control. Blood samples from wild type mice that received stem cells from celastrol-treated GFP mice were analyzed after 3, 4 and 5 months of transfer.

Assay [6] has as its system mice with ALF induced by TAA. As to the kind of experiment: Liver histology in thioacetamide (TAA) induced acute liver failure. The assay is classed as in vivo, C57BL6/J mice. The following applies: TAA 500 mg/kg; celastrol 2.5 mg/kg by injection; 3 days after ALF induction. The procedure: The administration of thiomacetamide (TAA) to induce liver damage is a well-known model of acute liver failure (ALF), see for example, Müller et al., “Thioacetamide-induced cirrhosis-like liver lesions in rats—usefulness and reliability of this animal model.” Exp Pathol. 1988; 34(4):229-36. Groups of C57BL6/J mice received either TAA (1000 mg/kg), TAA (500 mg/kg), or placebo by intraperitoneal injection. The group receiving TAA (500 mg/kg) was divided into two subgroups, and one group received NS by injection and the other group received celastrol by injection (2.5 mg/kg). Mice were sacrificed either one or three days after treatment. The livers of the mice were removed for histological examination (FIGS. 11A-11D).

For the next assay, the system named is NOD mice. As to the kind of experiment: Blood glucose / diabetes incidence in NOD mouse model. The format is in vivo. The procedure:
The NOD mouse is recognized as a model for human Type1 diabetes (Anderson and Bluestone, “THE NOD MOUSE: A Model of Immune Dysregulation” Annual Review of Immunology 23: 447-485, 2005, which is incorporated by reference in its entirety). Celastrol was administered to the mice at the rate of 3.0 mg/kg body weight via intra-peritoneal injection once a week in NOD mice starting from 4 weeks of age. When mice attained 11 weeks of age, the compound was administered at the rate of 3.3 mg/kg body weight via oral gavage three times a week up to 30 weeks of age. Blood glucose levels were measured at the time of celastrol administration once a week from 4-10 weeks and three times a week from 11-30 weeks. Mice in control group were treated with placebo.

For assay [7], the system named is irradiated wild type mice, C57BL/6. As to the kind of experiment: Secondary adaptive transfer of bone marrow cells into irradiated wild type mice. As to conditions: bone marrow cells from celastrol treated primary adaptive transfer group, 1.5×10^6 cells per mouse; at 7 weeks; control group died within 10 days. The format is in vivo, C57BL/6 mice. The source says: Wild type mice that survived the primary transfer were used for secondary transfer. Bone marrow cells obtained from these mice were collected and transferred into irradiated wild type mice, C57BL/6 at 1.5×10^6 cells per mouse.

Setting [8] is: celastrol 2.5 mg/kg i.p., 24 hours post treatment.

Where “and” joins values, the source holds several entries; their conditions need not be identical. Identical values can stand only once. Entries after “also recorded” stand apart in the source; their conditions may differ.

The compound `CC1=C(O)C(=O)C=C2C1=CC=C1[C@@]2(C)CC[C@@]2(C)[C@@H]3C[C@](C)(C(=O)O)CC[C@]3(C)CC[C@]12C` [celastrol] yielded a survival in assay [1] of 71.4%. Moreover, in the assay with NOD-scid mice, the “recipient mice free of diabetes (hyperglycemic condition)” value is recorded as 12/12. For the same compound, the “blood glucose levels in STZ mice relative to STZ mice injected with saline placebo” value in [2] was “substantially lower; also recorded: normoglycemia”. Besides, the “cd34+ cells, percent of the population of bone marrow cells” value in assay [3] (setting [8]) amounted to 0.2%. Also, the “fold increase of percentage of cd34+ cells in bone marrow over control” value in [3] (setting [8]) is on record as approximately 4 fold; in assay [3] (celastrol 2.5 mg/kg i.p., 48 hours), approximately 2 fold. Also, the “fold increase of percentage of cd45+ cells in bone marrow vs untreated control” value in assay [3] (setting [8]) was “about 2 fold”. The “increase in CD45 population in bone marrow” value in assay [3] (celastrol 2.5 mg/kg i.p., 48 hours post treatment, undetectable in placebo mice) is reported as “still detectable”. Further, the “fold increase in the proportion of Sca-1+ stem cells in bone marrow vs untreated mice” value is recorded as approximately 3 fold in [3] (celastrol 2.5 mg/kg i.p., by 48 hours) and “approximately 4 fold” in [3] (celastrol 2.5 mg/kg i.p., time not printed (before 48 hours)). Also, the “increase in cd34+, cd45+ and sca-1+ cells compared with GM-CSF” value in assay [3] (doses not given) was “exceeded that observed using GM-CSF”. Moreover, in assay [4], the “blood glucose levels after glucose challenge” value is less than 400 mg/dL. In addition, the “recipient mice surviving for at least 5 months” value in assay [5] (irradiated mice given 0.5×10^6 white blood cells from celastrol treated GFP mice, n=4, placebo-cell recipients died between 12 and 16 days) is listed as 50%. Moreover, the “survival time of the other two recipient mice” value in assay [5] (irradiated mice given cells from celastrol treated GFP mice) is 17 days and 25 days. Moreover, in assay [6], the “liver histology after ALF induction” value is recorded as “regression of liver injury”. Moreover, in the assay on NOD mice (celastrol 3.0 mg/kg i.p. once a week from 4 weeks, 3.3 mg/kg oral gavage three times a week from 11 to 30 weeks of age, at 23 weeks of age), the “mice that became hyperglycemic (more than 250 mg/dL)” value was “twenty”. For the same compound, the “mice euglycemic or normoglycemic (less than 250 mg/dL)” value in the assay with NOD mice (same regimen, up to 30 weeks of age) is given as “Eighty”. The “mice still surviving secondary transfer” value in assay [7] was determined as 85.7%.

For the origin of these results see patent US20110218143A1, “COMPOSITIONS AND METHODS FOR TISSUE REPAIR” (UNIVERSITY OF FLORIDA RESEARCH FOUNDATION, priority 2007, published 2011).
